Measurements reported in PMC7051184, “C9orf72 arginine-rich dipeptide repeat proteins disrupt karyopherin-mediated nuclear import” (eLife, 2020).
Where a SMILES comes first, the peptide text is derived from it.

Tests used:
TDP-43 = assay: DPR aggregation assay and western blot, TDP-43; format: biochemical, human; conditions: for TDP43 band density, % untr control: Fig 5-suppl 3C, normalized to untreated HEK on same membrane; for TDP43 band density, % control: normalized to untreated HEK cells on the same membrane
Experimental: (§1) Supernatant and pellet fractions (for all 5 DPRs, and control/buffer only) were prepared as in the nuclear transport assays, by adding 100 µM 10mers to 2.5 mg/ml HEK lysate in 100 µL TRB. Supernatants were boiled in Laemmli (BioRad) for 5 min. Pellets were boiled for 15 min followed by sonication in order to fully disperse aggregates for SDS-PAGE. Equal volumes of supernatant and pellet fractions were run on 4–12% Bolt Bis-Tris Plus gels (ThermoFisher), transferred to nitrocellulose membrane using an iBlot2 dry blotting system (ThermoFisher). Protein loading was analyzed by BLOT-Faststain (G-biosciences, St. Louis, MO), according to the manufacterers’ instructions. For immunodetection, membranes were blocked with 5% non-fat milk in TBST and probed by sequential incubation with the primary antibodies as detailed in the table below. Detection was by HRP-conjugated secondary antibodies/chemiluminescence using an ImageQuant LAS 4000 system (GE, Chicago, IL). To permit sequential probing of membranes without stripping, signals were quenched by incubation with prewarmed 30% H20_2 for 20 min ([Sennepin et al., 2009]). Band intensities were measured by ImageQuant software. For pellet vs. supernatant fractions, all were expressed as percent untreated control. For blots in Figure 1E, samples were run on 4–20% SDS PAGE minigels (ThermoFisher) and blotted to PVDF membranes (Immun-Blot PVDF, Bio-Rad) using the Bio-Rad TransBlot Turbo apparatus, and probed as above. The chemiluminescence signal was captured with a Bio-Rad ChemiDoc XRS+ digital imaging system.

RanGAP1 = assay: DPR aggregation assay and western blot, RanGAP1; format: biochemical, human; conditions: for RanGAP1 band density, Pellet / RanGAP1 band density, Supernatant: 100 µM 10mer in 2.5 mg/ml HEK lysate, normalized to untreated HEK; for RanGAP1 band density, % untr control: Fig 5-suppl 3C, normalized to untreated HEK on same membrane
Experimental: as §1

importin β (KPNB1) = target: T1, importin β (KPNB1) (Homo sapiens, UniProt Q14974); assay: Rango FRET detection of importin β-Rango dissociation; format: binding; conditions: DPR 10-mers added to importin β-bound Rango
T1 construct: pET30a 6His-S-Importin β(1-876); 6His (N); S-tag (N); made in house; host or cells: E. coli BL21(DE3)
Experimental: Full-length human importin β was expressed from pET30a-WT importin β (pKW485; [Chi et al., 1997]) at the Protein Expression Laboratory (PEL, National Cancer Institute, Frederick, MD). The transformed BL21DE3 cells were grown at 37°C in an 80L Bioflow 500 bioreactor (New Brunswick Scientific, Edison, NJ) until OD600nm = 0.6, cooled to 22°C and the expression was induced with 0.3 mM IPTG. After 12 hr induction, cells were harvested with the CARR continuous flow centrifuge and lysed in PBS with 10 mM imidazole and 5 mM TCEP with a 110EH Microfluidizer (Microfluidics, Westwood, MA) using 2 passes at 10,000 PSI under chilled conditions. The lysates were flash-frozen in liquid nitrogen and stored at −80°C. After thawing, the lysates were clarified and incubated with HIS-Select HF Nickel Affinity beads. The beads were washed with 10 mM imidazole/PBS and the protein eluted with 200 mM imidazole/PBS before dialysis in XB. The purified importin β was combined with a freshly thawed aliquot of Rango2-α1 (pK188) at 2.5:1 molar ratio ratio (12.5 µM importin β, 5 µM Rango) and supplemented with 3% glycerol. Measurement of Rango fluorescence emission in a spectrometer (see below) was used to verify the FRET-off state of the Rango/importin β mixture before freezing.
The expression of zz-RCC1 was induced at OD600nm = 0.4, followed by incubation at 22°C for 4 hr. The cells were washed with PBS, 10 mM Imidazole, 1 mM MgCl2, 5 mM TCEP, 0.2 mM AEBSF, pH 8.0, and lysed by ice-cold microfluidizer. The clarified lysates were used to isolate the zz-RCC1 proteins on HIS-Select HF Nickel Affinity beads, as described above. Proteins eluted with 0.2M imidazole/PBS were dialyzed in PBS before storage. The zz-RanQ69L (pKW1234; pK1097) was expressed from BL21DE3 cells at PEL in an 80L bioreactor, using conditions described for importin β above, except that expression was induced with 0.3 mM IPTG at 37°C for 3 hr, and lysis was performed in PBS with 10 mM Imidazole, 5 mM TCEP, 2 mM MgCl2, and 1 mM GTP. The lysates were clarified and bound to HIS-Select HF Nickel Affinity beads (Millipore Sigma). […]
FRET assays for DPR-induced dissociation of the importin β-Rango complex were performed using a mix of 5 µM Rango-2/α1 (pK188) and 12.5 µM importin β (pKW485) prepared as described above. […] Peak emissions were recorded at 480 nm (donor) and 535 nm (acceptor) in all samples, and background emission subtracted at the same wavelengths in the blank. The FRET signal was calculated as the ratio of background-subtracted acceptor/donor emissions. The signal detected in the untreated sample (20 nM Rango and 50 nM importin β-only, the lowest FRET), was then subtracted from the resulting values. […]

[1] = Pellet, no RNA (Untreated), blot 1
[2] = Pellet, no RNA (Untreated), blot 2
[3] = Supernatant, no RNA (Untreated), blot 1
[4] = Supernatant, no RNA (Untreated), blot 2

T1 sequence (Q14974 whole entry): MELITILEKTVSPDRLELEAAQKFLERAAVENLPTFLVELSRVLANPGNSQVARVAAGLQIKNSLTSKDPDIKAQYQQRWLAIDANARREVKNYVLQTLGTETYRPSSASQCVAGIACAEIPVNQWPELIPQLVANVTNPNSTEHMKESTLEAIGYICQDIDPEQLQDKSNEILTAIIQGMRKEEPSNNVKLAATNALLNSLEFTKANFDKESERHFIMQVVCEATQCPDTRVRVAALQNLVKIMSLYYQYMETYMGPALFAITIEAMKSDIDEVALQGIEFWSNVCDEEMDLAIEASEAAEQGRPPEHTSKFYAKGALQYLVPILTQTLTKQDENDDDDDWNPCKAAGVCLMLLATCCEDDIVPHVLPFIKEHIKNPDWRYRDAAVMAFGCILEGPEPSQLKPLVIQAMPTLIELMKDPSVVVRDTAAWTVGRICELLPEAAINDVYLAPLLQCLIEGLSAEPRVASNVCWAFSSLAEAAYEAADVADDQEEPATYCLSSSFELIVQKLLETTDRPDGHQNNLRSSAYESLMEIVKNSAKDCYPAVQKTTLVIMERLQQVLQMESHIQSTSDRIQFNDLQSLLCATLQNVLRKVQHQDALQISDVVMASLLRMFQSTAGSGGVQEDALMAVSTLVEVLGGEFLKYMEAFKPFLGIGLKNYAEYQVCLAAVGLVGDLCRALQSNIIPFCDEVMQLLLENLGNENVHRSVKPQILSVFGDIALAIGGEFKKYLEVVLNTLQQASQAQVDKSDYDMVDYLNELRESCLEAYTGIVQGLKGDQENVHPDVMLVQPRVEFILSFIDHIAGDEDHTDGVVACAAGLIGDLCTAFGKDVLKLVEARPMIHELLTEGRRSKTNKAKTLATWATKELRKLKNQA

| Molecule | TDP43 band density, % untr control (TDP-43; Pellet, RNA, blot 1) [%] | TDP43 band density, % untr control (TDP-43; Pellet, RNA, blot 2) [%] | TDP43 band density, % untr control (TDP-43; [1]) [%] | TDP43 band density, % untr control (TDP-43; [2]) [%] | TDP43 band density, % untr control (TDP-43; Supernatant, RNA, blot 1) [%] | TDP43 band density, % untr control (TDP-43; Supernatant, RNA, blot 2) [%] | TDP43 band density, % untr control (TDP-43; [3]) [%] | TDP43 band density, % untr control (TDP-43; [4]) [%] | RanGAP1 band density, % untr control (RanGAP1; Pellet, RNA, blot 1) [%] | RanGAP1 band density, % untr control (RanGAP1; Pellet, RNA, blot 2) [%] | RanGAP1 band density, % untr control (RanGAP1; [1]) [%] | RanGAP1 band density, % untr control (RanGAP1; [2]) [%] | RanGAP1 band density, % untr control (RanGAP1; Supernatant, RNA, blot 1) [%] | RanGAP1 band density, % untr control (RanGAP1; Supernatant, RNA, blot 2) [%] | RanGAP1 band density, % untr control (RanGAP1; [3]) [%] | RanGAP1 band density, % untr control (RanGAP1; [4]) [%] | Effect on Rango FRET (importin β (KPNB1)) | other results |
| --- | --- | --- | --- | --- | --- | --- | --- | --- | --- | --- | --- | --- | --- | --- | --- | --- | --- | --- |
| N=C(N)NCCC[C@H](NC(=O)[C@@H]1CCCN1C(=O)[C@H](CCCNC(=N)N)NC(=O)[C@@H]1CCCN1C(=O)[C@H](CCCNC(=N)N)NC(=O)[C@@H]1CCCN1C(=O)[C@H](CCCNC(=N)N)NC(=O)[C@@H]1CCCN1C(=O)[C@H](CCCNC(=N)N)NC(=O)[C@@H]1CCCN1C(=O)[C@H](CCCNC(=N)N)NC(=O)[C@@H]1CCCN1C(=O)[C@H](CCCNC(=N)N)NC(=O)[C@@H]1CCCN1C(=O)[C@H](CCCNC(=N)N)NC(=O)[C@@H]1CCCN1C(=O)[C@H](CCCNC(=N)N)NC(=O)[C@@H]1CCCN1C(=O)[C@H](CCCNC(=N)N)NC(=O)[C@@H]1CCCN1)C(=O)O [PR10] (H-PRPRPRPRPRPRPRPRPRPR-OH; N-terminus and C-terminus assumed) | 155.77 | 157.99 | 180.16 | 165.43 | 71.23 | 80.31 | 41.29 | 36.83 | 309.83 | 267.45 | 288.68 | 278.19 | 115.69 | 95.48 | 62.58 | 76.25 | dose-dependent increase in FRET | TDP43 band density, % control (TDP-43; Pellet, Blot 1): 424.3 % control; TDP43 band density, % control (TDP-43; Pellet, Blot 2): 185.6 % control; TDP43 band density, % control (TDP-43; Supernatant, Blot 1): 54.8 % control; TDP43 band density, % control (TDP-43; Supernatant, Blot 2): 45.9 % control; RanGAP1 band density, Pellet (RanGAP1; Blot 1): 413.6 % control; RanGAP1 band density, Supernatant (RanGAP1; Blot 1): 76.6 % control; RanGAP1 band density, Pellet (RanGAP1; Blot 2): 481.7 % control; RanGAP1 band density, Supernatant (RanGAP1; Blot 2): 84.2 % control |
| GA10: Synthetic 10-mer GA dipeptide repeat with C-terminal lysine and cysteine (GAGAGAGAGAGAGAGAGAGAKC) | 112.48 | 99.51 | 116.61 | 120.53 | 88.02 | 100.78 | 86.33 | 98.73 | 93.93 | 89.10 | 87.31 | 80.44 | 83.26 | 119.18 | 131.44 | 105.30 | did not affect Rango FRET | – |
| GPGPGPGPGPGPGPGPGPGPKC [GP10, Synthetic 10-mer GP dipeptide repeat with C-terminal lysine and cysteine] | – | – | – | – | – | – | – | – | – | – | – | – | – | – | – | – | did not affect Rango FRET | – |
| PA10: Synthetic 10-mer PA dipeptide repeat with C-terminal lysine and cysteine (PAPAPAPAPAPAPAPAPAPAKC) | – | – | – | – | – | – | – | – | – | – | – | – | – | – | – | – | did not affect Rango FRET | – |
